Results on six compounds are retold here after patent publication US9820951B2, “Pulmonary disease treatment and diagnosis based on Arhgef1” (NATIONAL JEWISH HEALTH, A NON-PROFIT ORGANIZATION, priority 2011, dated 2017).

“Also recorded” adds a separate entry of the source.

Test [1] deals with Mmp9. The test is described as follows: MMP9 activity by gelatin zymography in conditioned media of mouse peritoneal macrophages cultured on fibronectin. It is filed as cell-based. The following applies: for maximal inhibition of fibronectin-induced MMP9 production/activity: both wild type and Arhgef1-deficient macrophages, aspirin up to 20 mM, L-161,982, PTA2 1.56 or 6.25 μM, L-655,240 28 μM. As for the experimental part:
FIG. 5. TP-induced MMP9 production is only partially dependent on COX activity. A) PEMs were cultured on fibronectin for 24 hours with 5% FCS, washed then treated with different concentration of aspirin or 1.6 μM PTXA2 at for an additional 24 hours without FCS. MMP9 activity was determined by zymography from supernatants of wild type (open) or Arhgef1−/− (filled) macrophages. Activity was normalized to activity generated from cells cultured on fibronectin without treatment. B) MMP9 activity in conditioned media from peripheral blood monocytes cultured as described in panel A. Data represents mean±SE (n=3 independent donors).
FIG. 6. The antioxidant mimetic MnTE-2PyP reduces MMP9 activity in macrophages. PEMs were cultured on fibronectin for 24 hours with 5% FCS, washed then treated with MnTE-2PyP at the indicated concentrations for an additional 24 hours without FCS. MMP9 activity was determined by zymography from supernatants of wild type (open) or Arhgef1−/− (filled) macrophages. Activity was normalized to activity generated from cells cultured on fibronectin without treatment.
FIG. 11. Cyclooxygenase activity but not EP4 receptor signaling is required for MMP9 production by murine macrophages cultured on fibronectin. A, representative MMP9 gelatin zymograms of conditioned media from peritoneal macrophages cultured on either plastic (ctl) or FN and treated with increasing concentrations of aspirin (1.25, 5.0, and 20 mM, respectively). Wild type (+/+) and Arhgef1^−/− (−/−) samples from separate zymograms are shown. Molecular weight standards and respective enzymatic activities of MMP9 and MMP2 are shown. B, quantitation of MMP9 activity as determined by densitometric analysis of zymograms in A. MMP 9 activity is shown in arbitrary units and represents n=6 for both wild type (open bars) and Arhgef1^−/− (black bars) samples. The results are compiled from two independent experiments. The data represent the means±S.E. *, p<0.05 Student's two-tailed t test compared with conditioned media from cells cultured on plastic. #, p<0.05 Student's two-tailed test comparing conditioned media from wild type cells to Arhgef1^−/− cells cultured under identical conditions. $, p<0.05 Student's two-tailed t test compared with conditioned media from cells cultured on fibronectin. C, quantitation of MMP9 activity in conditioned media from macrophages cultured on fibronectin in the presence of the EP4 antagonist L161,982 (10 μM). MMP9 activity was normalized to fibronectin response for each genotype. The results are compiled from two independent experiments with wild type (open bars, n=5) and Arhgef1^−/− (black bars, n=5) samples. The data represent the means±S.E. *, p<0.05 Student's two-tailed t test compared with conditioned media from cells cultured on plastic. #, p<0.05 Student's two-tailed t test compared with conditioned media from cells cultured on fibronectin.
FIG. 12. Thromboxane receptor signaling is necessary for fibronectin-induced MMP9 production by macrophages and is attenuated by Arhgef1. A, representative gelatin zymograms of conditioned media from macrophages cultured on plastic (ctl) or FN and treated with 1.56 or 6.25 μM of the thromboxane receptor antagonist PTA2. Wild type (+/+) and Arhgef1^−/− (−/−) samples from separate zymograms are shown. B, quantitation of MMP9 activity as determined by densitometric analysis of zymograms in A. The results are representative of two independent experiments. C, representative zymograms from conditioned media from macrophages cultured on plastic or fibronectin and treated with 28 μM of the thromboxane receptor antagonist L-655,240. D, quantitation of MMP9 activity as determined by densitometric analysis of zymograms in C. The results are compiled from two independent experiments with n=4 for both wild type (open bars) and Arhgef1^−/− (black bars) samples. […]

A further test has as its system MMP2. Kind of test: MMP2 activity by gelatin zymography in conditioned media of mouse peritoneal macrophages cultured on fibronectin. The note with it: wild type and Arhgef1−/− macrophages; 20 mM aspirin or 28 μM L-655,240. The format is cell-based. As for the experimental part: FIG. 12. Thromboxane receptor signaling is necessary for fibronectin-induced MMP9 production by macrophages and is attenuated by Arhgef1. A, representative gelatin zymograms of conditioned media from macrophages cultured on plastic (ctl) or FN and treated with 1.56 or 6.25 μM of the thromboxane receptor antagonist PTA2. Wild type (+/+) and Arhgef1^−/− (−/−) samples from separate zymograms are shown. B, quantitation of MMP9 activity as determined by densitometric analysis of zymograms in A. The results are representative of two independent experiments. C, representative zymograms from conditioned media from macrophages cultured on plastic or fibronectin and treated with 28 μM of the thromboxane receptor antagonist L-655,240. D, quantitation of MMP9 activity as determined by densitometric analysis of zymograms in C. The results are compiled from two independent experiments with n=4 for both wild type (open bars) and Arhgef1^−/− (black bars) samples. […] E, MMP2 activity was quantitated in conditioned media as previously described for MMP9. […] The data represent the means±S.E. F, MMP9 activity was quantitated as previously described and normalized to a percentage of fibronectin response for each genotype. […] G, relative Mmp9 expression was measured by qPCR in macrophages cultured on fibronectin in the presence of the thromboxane receptor agonist (U-46619, 10 nM), S1P (40 nM), or LPA (10 μM). […]

Test [2] relates to Mmp9. Kind of test: Mmp9 expression by qPCR in mouse peritoneal macrophages cultured on fibronectin. It is filed as cell-based. As for the experimental part:
(§1) FIG. 4. TP signaling is required for MMP9 production in vitro and in vivo. A) Macrophage Mmp9 expression after culture on fibronectin for 24 hrs in media/vehicle (−), 40 nM S1P, 10 μM LPA, 10 nM U-46619 (TP agonist) or 6 μM PTXA2 (TP antagonist). Data represent normalized mean±SE. B) Arhgef1−/− mice (n=16) were exposed to aerosolized PBS (n=16), 220 μM PTXA2 (n=6) or 190 μM U-46619 (n=10) for 20 minutes and BAL harvested 1 day later and MMP activity measured.
FIG. 12. Thromboxane receptor signaling is necessary for fibronectin-induced MMP9 production by macrophages and is attenuated by Arhgef1. A, representative gelatin zymograms of conditioned media from macrophages cultured on plastic (ctl) or FN and treated with 1.56 or 6.25 μM of the thromboxane receptor antagonist PTA2. Wild type (+/+) and Arhgef1^−/− (−/−) samples from separate zymograms are shown. B, quantitation of MMP9 activity as determined by densitometric analysis of zymograms in A. The results are representative of two independent experiments. C, representative zymograms from conditioned media from macrophages cultured on plastic or fibronectin and treated with 28 μM of the thromboxane receptor antagonist L-655,240. D, quantitation of MMP9 activity as determined by densitometric analysis of zymograms in C. The results are compiled from two independent experiments with n=4 for both wild type (open bars) and Arhgef1^−/− (black bars) samples. The data represent the means±S.E. *, p<0.05 Student's two-tailed t test compared with conditioned media from cells cultured on plastic. #, p<0.05 Student's two-tailed t test comparing conditioned media from wild type cells to Arhgef1^−/− cells cultured under identical conditions. $, p<0.05 Student's two-tailed t test compared with conditioned media from cells cultured on fibronectin. E, MMP2 activity was quantitated in conditioned media as previously described for MMP9. The results are compiled from four independent experiments with n=10 for wild type (open bars) and Arhgef1^−/− (black bars) samples cultured on either plastic or fibronectin. For cells treated with 20 mM aspirin, n=6 for wild type (open bars) and Arhgef1^−/− (black bars) samples. For cells treated with 28 μM L-655,240, n=4 for wild type (open bars) and Arhgef1^−/− (black bars) samples. The data represent the means±S.E. F, MMP9 activity was quantitated as previously described and normalized to a percentage of fibronectin response for each genotype. The cells were either untreated or treated with 0.5% Me2SO or 28 μM L-655,240. The results are compiled from two independent experiments with n=3 for all conditions and genotypes. The data represent the means±S.E. *, p<0.05 Student's two-tailed t test compared with conditioned media from cells cultured on fibronectin. G, relative Mmp9 expression was measured by qPCR in macrophages cultured on fibronectin in the presence of the thromboxane receptor agonist (U-46619, 10 nM), S1P (40 nM), or LPA (10 μM). […] Wild type (open bars, n=12, 6, 3, and 3 for fibronectin, +U-46619, +S1P, and +LPA, respectively) and Arhgef1^−/− (black bars, n=14, 6, 3, and 2, respectively) from at least two independent experiments. The data represent the means±S.E. *, p<0.05 Student's two-tailed t test compared with conditioned media from cells cultured on fibronectin, #, p<0.05 Student's two-tailed t test comparing conditioned media from wild type cells to Arhgef1^−/− cells cultured under identical conditions. […]
(In general: Real-time PCR tracks product formation cycle by cycle.)

Test [3] concerns Mmp9. The test is described as follows: MMP9 activity in BAL of Arhgef1−/− mice after aerosol exposure. It is filed as in vivo, mouse. The note with it: inhalation of aerosol 20 min (220 μM PTXA2, 190 μM U-46619), BAL 24 hours later. As for the experimental part:
as §1

Test [4] concerns MMP9. Kind of test: MMP9 activity by gelatin zymography, peripheral blood monocytes from COPD patients on fibronectin. It is filed as cell-based, human. The following applies: monocytes from 3 COPD patients; dose response 0.4 μM to 260 μM. As for the experimental part:
FIG. 17. Seratrodast (AA-2414) treatment on peripheral blood monocytes from 3 COPD patients. Generated dose response curve going firm 0.4 μM to 260 μM. Measured response by gelatin zymography of conditioned media. A is a representative zymogram from a single individual COPD patient. B depicts results compiled from three COPD patients. *, p<0.05 for ctl vs FN; #, p<0.05 FN vs FN+seratrodast.
For other human studies, we quantitated MMP9 by ELISA in conditioned medium (ELISA TECH, Aurora, Colo.).
Novex (Invitrogen) zymogram 10% gelatin gels were used for zymography as indicated per the manufacturer's instructions on conditioned media. Protease activity was detected as a loss of gelatin at the molecular weight of the indicated MMP and quantified by densitometric analysis using ImageJ (National Institutes of Health) software.
As another example, the thromboxane receptor antagonist seratrodast (AA-2414) was used on peripheral blood monocytes from 3 COPD patients and data collected as shown in FIG. 17.

Where [5] appears, read: wild type and Arhgef1-deficient macrophages on fibronectin, 40 nM S1P, 10 μM LPA, 6 μM PTXA2, 24 h.

Consider `CCCCc1nn(-c2ccccc2C(F)(F)F)c(=O)n1Cc1ccc(-c2ccccc2S(=O)(=O)NC(=O)c2sccc2C)cc1` [L-161,982], for which, in the test with Mmp9 [1], the “maximal inhibition of fibronectin-induced MMP9 production/activity” value is recorded as −40%.
Take `Cc1c(CC(C)(C)C(=O)O)n(Cc2ccc(Cl)cc2)c2ccc(F)cc12` [L-655,240, 1-[(4-Chlorophenyl)methyl]-5-fluoro-α,α,3-trimethyl-1H-indole-2-propanoic acid]: the “maximal inhibition of fibronectin-induced MMP9 production/activity” value with Mmp9 [1] is listed as −90%. Further, the “fibronectin-mediated MMP9 activity (effect in words)” value in the test on Mmp9 [1] (mouse macrophages, wild type and Arhgef1−/−, 1.6 μM PTXA2, 28 μM L-655,240) was “significantly reduced MMP9 activity”. The MMP2 activity entry with MMP2 is on record as “not affected”.
For `CCCCCCCCCCCCC/C=C/[C@@H](O)[C@@H](N)COP(=O)(O)O` [S1P, sphingosine-1-phosphate], the Mmp9 expression entry in the test with Mmp9 [2] (setting [5]) is “slight decrease in Mmp9 expression; also recorded: modestly depress Mmp9 expression”.
Take `CCCCC[C@H](O)/C=C/[C@@H]1[C@@H](C/C=C\CCCC(=O)O)[C@H]2CO[C@@H]1C2` [U-46619]: the “MMP9 activity in BAL” value in the test on Mmp9 [3] is “dramatically increased MMP9 activity”. Moreover, the Mmp9 expression entry in the test on Mmp9 [2] (Arhgef1-deficient macrophages on fibronectin, 10 nM U-46619) was “expressed significantly more Mmp9; also recorded: considerably increased Mmp9 expression”; in the test on Mmp9 [2] (wild type macrophages on fibronectin, 10 nM U-46619), “did not affect wild type cells”.
As to `CC1=C(C)C(=O)C(C(CCCCCC(=O)O)c2ccccc2)=C(C)C1=O` (stereo not shown) [seratrodast, 7-phenyl-7-(2,4,5-trimethyl-3,6-dioxocyclohexa-1,4-dien-1-yl)heptanoic acid], in the test with MMP9 [4], the “MMP9 activity versus dose” value is “inverse relationship between MMP9 activity and seratrodast dose”.
For the compound lysophosphatidic acid [LPA], the Mmp9 expression result with Mmp9 [2] (setting [5]) was “slight decrease in Mmp9 expression; also recorded: modestly depress Mmp9 expression”.
